Experimental findings from ChEMBL document CHEMBL1201862, “PubChem BioAssay data set” (2004) are described below.

Test systems include DU-145; UACC-257; SF-539; U-251; T47D; CCRF-CEM; OVCAR-4; HCT-15; OVCAR-3; MDA-MB-435; PC-3; OVCAR-5; MDA-MB-231; ACHN; HT-29; UO-31; HL-60; LOX IMVI; K562; NCI-H522.
Assay in all cases: DTP human tumour cell line panel, 48 h

The structures appear in SMILES notation.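 Cells were grown in 96-well plates and exposed to each compound for 48 hours at five concentrations; endpoints were interpolated linearly between bracketing concentrations, or set to the highest concentration if not reached. GI50: concentration for 50% inhibition of growth.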 Active and inactive are the calls of the source. Rule as the data show it: active = GI50 up to about 1.1 µM and inactive = higher. Square brackets hold non-standard residues; d marks the D form. Peptide text beside a SMILES is read from it. Ac5c = NC1(C(=O)O)CCCC1

One may read the GI50 as the concentration giving 50% growth inhibition. Regarding `CC(C)(C)COC1C2(OCCO2)C2CCC1(C)C2(C)C` (stereo unspecified), the GI50 in the assay with DU-145 was 35.7 µM (inactive); in the assay with UACC-257 it was 24.9 µM (inactive); in the assay on SF-539, 37.8 µM (inactive); in the assay on U-251, 18 µM (inactive); in the assay on T47D, 23.8 µM (inactive); in the assay with CCRF-CEM, 18.8 µM (inactive). Further, the GI50 is 45 µM (inactive) in the assay on OVCAR-4; 22.4 µM with HCT-15; 17.6 µM (inactive) in the assay on OVCAR-3; 36 µM (inactive) with MDA-MB-435; 23.1 µM (inactive) in the assay on PC-3; 28.9 µM (inactive) with OVCAR-5. In addition, the GI50 in the assay on MDA-MB-231 is 31.8 µM (inactive); in the assay on ACHN, 20.4 µM (inactive); in the assay with HT-29 it was 32.7 µM (inactive); in the assay with UO-31, 26.2 µM (inactive); in the assay on HL-60, 24.8 µM (inactive); in the assay on LOX IMVI, 19.2 µM (inactive). Also, the GI50 with K562 is 18.5 µM (inactive).
As to `C=CCSc1nc2ccccc2c(=O)n1Cc1ccco1`, the GI50 is > 100 µM (inactive) in the assay on DU-145; > 100 µM (inactive) with UACC-257; > 100 µM (inactive) in the assay with SF-539; > 100 µM (inactive) in the assay on U-251; 29.1 µM (inactive) with T47D; 80.5 µM (inactive) with OVCAR-4. The GI50 with HCT-15 is 64.1 µM; with OVCAR-3 it was 68.7 µM (inactive); in the assay on MDA-MB-435, > 100 µM (inactive); in the assay with PC-3 it was > 100 µM (inactive); in the assay on OVCAR-5 it was > 100 µM (inactive); in the assay with MDA-MB-231, > 100 µM (inactive). Also, the GI50 in the assay on NCI-H522 is 61.8 µM (inactive); in the assay on ACHN, > 100 µM (inactive); in the assay on HT-29 it was 50.1 µM (inactive); in the assay with UO-31, 91.6 µM (inactive); in the assay with LOX IMVI, > 100 µM (inactive); in the assay with K562, > 100 µM (inactive).
On to `O=C(O)CSC1=NCCN1`, for which the GI50 with DU-145, with SF-539, in the assay on U-251, in the assay with T47D, in the assay on CCRF-CEM and in the assay with OVCAR-4 was > 100 µM (inactive) throughout. Moreover, the GI50 with HCT-15 is over 100 µM; with OVCAR-3, > 100 µM (inactive); in the assay on MDA-MB-435 it was > 100 µM (inactive); with PC-3, > 100 µM (inactive); with OVCAR-5 it was > 100 µM (inactive); with MDA-MB-231, > 100 µM (inactive). The GI50 in the assay with NCI-H522, with ACHN, in the assay on HT-29, with UO-31, with LOX IMVI and in the assay with K562 was > 100 µM (inactive) in each case.
Turning to `NC(=O)C(c1ccccc1)N1OC2C(=O)N(c3cccc4ccccc34)C(=O)C2C1c1c2ccccc2c(Cl)c2ccccc12` (stereo unspecified), the GI50 was 14.5 µM (inactive) in the assay on DU-145; 5.18 µM (inactive) in the assay on UACC-257; 5.24 µM (inactive) in the assay on SF-539; 7.57 µM (inactive) in the assay with U-251; 8.93 µM (inactive) in the assay with T47D; 9.93 µM (inactive) in the assay on OVCAR-4. Moreover, the GI50 in the assay on HCT-15 was 4.21 µM; in the assay with OVCAR-3 it was 7.91 µM (inactive); in the assay on MDA-MB-435, 6.92 µM (inactive); with PC-3 it was 6.98 µM (inactive); with OVCAR-5, 9.66 µM (inactive); in the assay with MDA-MB-231, 9.25 µM (inactive). Besides, the GI50 is 10.1 µM (inactive) in the assay on NCI-H522; 8.91 µM (inactive) in the assay with ACHN; 7.53 µM (inactive) in the assay with HT-29; 12 µM (inactive) in the assay with UO-31; 2.44 µM (inactive) with HL-60; 6.1 µM (inactive) with LOX IMVI. The GI50 with K562 is 8.15 µM (inactive).
For the molecule `O=C1Oc2cc(O)cc(/C=C/c3ccc(O)cc3)c2[C@@]12c1c(O)cc(O)cc1OC2c1cccc(O)c1` (stereo partly specified), the GI50 with DU-145 was 39 µM (inactive); in the assay with UACC-257 it was 15.2 µM (inactive); in the assay on SF-539, 31.8 µM (inactive); in the assay on U-251, 32.9 µM (inactive); in the assay with T47D it was 44.8 µM (inactive); in the assay with CCRF-CEM, 22 µM (inactive). Further, the GI50 in the assay with OVCAR-4 was 56.2 µM (inactive); with HCT-15, 83.4 µM; in the assay with OVCAR-3, 61.2 µM (inactive); with MDA-MB-435, 21.4 µM (inactive); in the assay on PC-3 it was 30.9 µM (inactive); in the assay with OVCAR-5 it was 29.2 µM (inactive). Besides, the GI50 with MDA-MB-231 was 26.4 µM (inactive); with ACHN, 52.5 µM (inactive); with HT-29, 29.2 µM (inactive); with UO-31 it was 29.7 µM (inactive); in the assay on HL-60 it was 28.9 µM (inactive); in the assay with LOX IMVI, 23.3 µM (inactive). The GI50 in the assay with K562 was 39.8 µM (inactive).
For the molecule `COc1cc2c(c(OC)c1)/C(=C/Sc1ccccc1)C(=O)N(C(C)(C)C)C2`, the GI50 in the assay with DU-145 is > 100 µM (inactive); in the assay on UACC-257, 30.6 µM (inactive); with SF-539 it was 44.7 µM (inactive); with U-251 it was 29.8 µM (inactive); in the assay with T47D, 26.7 µM (inactive); in the assay on CCRF-CEM, 29.2 µM (inactive). Further, the GI50 with OVCAR-4 is 33.1 µM (inactive); in the assay on HCT-15, 30.3 µM; in the assay on OVCAR-3, 22.5 µM (inactive); in the assay with MDA-MB-435, 22.2 µM (inactive); with PC-3, 22.4 µM (inactive); in the assay with OVCAR-5, 52.6 µM (inactive). Further, the GI50 was 23.4 µM (inactive) in the assay with MDA-MB-231; 35.3 µM (inactive) in the assay with ACHN; 22.9 µM (inactive) in the assay with HT-29; 25 µM (inactive) in the assay with HL-60; 18.8 µM (inactive) in the assay on LOX IMVI; 37.8 µM (inactive) in the assay on K562.
Turning to `COC(=O)C1(O)C(c2ccccc2)=NC2(C)CCCC21` (stereo unspecified), the GI50 with DU-145, in the assay on UACC-257, in the assay on U-251, with T47D, in the assay on CCRF-CEM and in the assay on OVCAR-4 was > 100 µM (inactive) each time. In addition, the GI50 was over 100 µM in the assay on HCT-15; > 100 µM (inactive) in the assay on OVCAR-3; > 100 µM (inactive) in the assay with MDA-MB-435; > 100 µM (inactive) in the assay on PC-3; > 100 µM (inactive) in the assay on OVCAR-5; > 100 µM (inactive) with MDA-MB-231. For the same molecule, the GI50 with NCI-H522, in the assay with HT-29, in the assay with UO-31, in the assay with LOX IMVI and in the assay with K562 was > 100 µM (inactive) in each case.
As to `CN1CCCN(C)CCCN(C)CCCN(C)CCC1`, the GI50 in the assay on DU-145, with UACC-257, with U-251, in the assay on T47D, in the assay on CCRF-CEM and with OVCAR-4 was > 100 µM (inactive) throughout. In addition, the 50% growth inhibitory concentration (GI50) in the assay on HCT-15 was over 100 µM; in the assay on OVCAR-3, > 100 µM (inactive); with MDA-MB-435 it was > 100 µM (inactive); in the assay on PC-3, > 100 µM (inactive); with OVCAR-5, > 100 µM (inactive); in the assay on MDA-MB-231 it was > 100 µM (inactive). Moreover, the GI50 with NCI-H522, in the assay with ACHN, in the assay on HT-29, in the assay on UO-31 and in the assay with K562 was > 100 µM (inactive) each time.
Regarding `NCC(=O)NC1(C(=O)O)CCCC1` (H-Gly-[Ac5c]-OH), the GI50 in the assay on DU-145, in the assay with UACC-257, with SF-539, in the assay with U-251, with T47D and in the assay on OVCAR-4 was > 100 µM (inactive) throughout. The GI50 in the assay on HCT-15 is over 100 µM; with OVCAR-3, > 100 µM (inactive); with MDA-MB-435, > 100 µM (inactive); in the assay with PC-3 it was > 100 µM (inactive); in the assay on OVCAR-5 it was > 100 µM (inactive); in the assay with MDA-MB-231, > 100 µM (inactive). Besides, the GI50 with NCI-H522, in the assay with ACHN, with HT-29, in the assay with UO-31, with LOX IMVI and in the assay with K562 was > 100 µM (inactive) throughout.
Consider `COC(=O)c1ccccc1CC1Cc2cccc(C)c2C1=O` (stereo unspecified), for which the GI50 in the assay with DU-145 was 96.4 µM (inactive); in the assay on UACC-257, 34 µM (inactive); with SF-539, 89.7 µM (inactive); with U-251 it was 33 µM (inactive); with T47D, 25.8 µM (inactive); with CCRF-CEM it was 36.8 µM (inactive). Further, the GI50 in the assay on OVCAR-4 is 27.7 µM (inactive); in the assay on HCT-15, 24 µM; in the assay on OVCAR-3, 33.7 µM (inactive); in the assay with MDA-MB-435 it was 23.3 µM (inactive); in the assay on PC-3, 24 µM (inactive); with OVCAR-5, 57.5 µM (inactive). The GI50 with MDA-MB-231 is 51.5 µM (inactive); in the assay on NCI-H522, 24.8 µM (inactive); with ACHN, 34.8 µM (inactive); in the assay on HT-29, 22.9 µM (inactive); with UO-31, 22.7 µM (inactive); with LOX IMVI, 22.4 µM (inactive). Also, the GI50 in the assay on K562 is 22.3 µM (inactive).
Take `CCOC(=O)c1c(-c2ccc(OC)cc2)c(C#N)c(=S)n(C2OC(CO)C(O)C(O)C2O)c1-c1ccccc1` (stereo unspecified): the GI50 is 48.4 µM (inactive) with DU-145; > 100 µM (inactive) with UACC-257; 38.1 µM (inactive) in the assay with SF-539; 47.1 µM (inactive) in the assay with U-251; 52.2 µM (inactive) with T47D; 31.2 µM (inactive) in the assay with CCRF-CEM. Also, the GI50 in the assay with OVCAR-4 was 34.3 µM (inactive); in the assay on HCT-15, 56 µM; in the assay on OVCAR-3 it was 24.6 µM (inactive); with MDA-MB-435, 30.8 µM (inactive); in the assay on PC-3 it was 35.6 µM (inactive); in the assay with OVCAR-5, > 100 µM (inactive). The GI50 in the assay on MDA-MB-231 is 36 µM (inactive); in the assay with ACHN it was 54.7 µM (inactive); in the assay on HT-29, 40.6 µM (inactive); in the assay on UO-31 it was 51.5 µM (inactive); in the assay with HL-60, 40.8 µM (inactive); in the assay on LOX IMVI it was 41.9 µM (inactive). Moreover, the GI50 in the assay on K562 was 34.4 µM (inactive).
